Measurements: patent US20230109839A1, “THERAPEUTIC AGENT FOR TAUOPATHIES” (SUMITOMO PHARMA CO., LTD., priority 2020, published 2023)

Biological target: T1, human Nav1.1 (Homo sapiens, UniProt P35498)
T1 construct: host or cells: HEK293
Experiment: Amplification of Nav1.1-derived voltage-gated sodium current (Nav1.1 current), automated patch clamp (Test 1)
Assay type: cell-based
Conditions: HEK293 cell line stably expressing human Nav1.1
Protocol: Test 1: Evaluation of the Amplification of Nav1.1-Derived Voltage-Gated Sodium Current (Nav1.1 Current) by Using a Cell Line Stably Expressing Human Nav1.1
(1) Preparation of Test Compound Solution
Test compounds were prepared by dissolving in DMSO at 200 times of the concentration at evaluation, and diluting the obtained solution to twice the concentration of evaluation with an extracellular fluid (135 mmol/L NaCl, 4 mmol/L KCl, 1 mmol/L MgCl2, 5 mmol/L CaCl2, 5 mmol/L Glucose, 10 mmol/L HEPES).
(2) Induction and Measurement of Nav1.1 Current
A HEK293 cell line stably expressing human Nav1.1 (cat #CYL3009, Eurofins DiscoverX Products, LLC, Human Embryonic Kidney 293) was purchased, and used in the present test. Nav1.1 current was induced by stimulating Ramp wave voltage. Detection of current which accompanied with the stimulation of voltage was carried out by a patch-clamp voltage-clamp method using HTS automated patch clamp system (SynchroPatch 768PE, Nanion Technologies GmbH, Germany). Only cells with more than 500 pA of voltage-gated sodium channel current were used for the evaluation of the activity of compounds on Nav1.1 current because there was the possibility that currents derived from endogenous voltage-gated sodium channels accounted for large proportion in cells with less than 500 pA of voltage-gated sodium channel current which was induced by stimulating Ramp wave voltage.
(3) Pharmacological Effect on Nav1.1 Current
The effect of test compounds on the amplification of Nav1.1-derived voltage-gated sodium current was evaluated by using a cell line stably expressing human Nav1.1 and HTS automated patch clamp system. In other words, test compounds were added in an extracellular fluid containing 1% DMSO, and evaluated as a change of the peak value of Nav1.1 current and the area under the curve (AUC).
(4) Method for Pharmacological Evaluation
The Nav1.1 current amplification rates of test compounds were calculated by the following formula:
Nav1.1 current amplification rate (%)=100×[the peak value of Nav1.1 current or the area under the curve after the addition of test compounds]/[the peak value of Nav1.1 current or the area under the curve before the addition of test compounds]−100

[1] = Concentration for evaluation 10 μM

| SMILES | Nav1.1 current amplification rate (%) [1] [%] | Nav1.1 current amplification rate (%) (Concentration for evaluation 1 μM) |
| --- | --- | --- |
| CC1CCC(c2ccc(=O)n(CC(=O)N3CCc4c(N5CCOCC5)cccc43)n2)CC1 (mixture of isomers) [Example 472] | 387 |  |
| CC1CC=C(c2ccc(=O)n(CC(=O)Nc3ccn4cc(C(F)(F)F)nc4c3)n2)CC1 (racemic) [Example 421] | 199 |  |
| Cc1nc2cc(NC(=O)Cn3nc(C4=CCC(C)CC4)ccc3=O)ccc2o1 (racemic) [Example 422] | 287 |  |
| Cc1noc2ccc(NC(=O)Cn3nc(C4=CCC(C)CC4)ccc3=O)cc12 (racemic) [Example 423] | 11 |  |
| CC1CC=C(c2ccc(=O)n(CC(=O)N3CC4(C3)CN(c3cccnc3)C4)n2)CC1 (racemic) [Example 424] | 40 |  |
| O=C(Cn1nc(C2=CCC(C(F)(F)F)CC2)ccc1=O)Nc1ccc2ocnc2c1 (racemic) [Example 446] | 333 |  |
| COc1cc(C2=CCC(C(F)(F)F)CC2)nn(CC(=O)Nc2ccc3ocnc3c2)c1=O (racemic) [Example 447] | 148 |  |
| COc1cc(C2=CCC(C)CC2)nn(CC(=O)Nc2ccc3ocnc3c2)c1=O (racemic) [Example 449] | 250 |  |
| COc1cc(=O)n(CC(=O)Nc2ccc3ocnc3c2)nc1C1=CCC(C(F)(F)F)CC1 (racemic) [Example 450] | 187 |  |
| CC1CC=C(c2ncc3cnn(CC(=O)Nc4ccn5ncnc5c4)c3n2)CC1 (racemic) [Example 764] |  | 164 |
| CCCCN(C)c1ccc(=O)n(CC(=O)Nc2ccc(C#N)cc2)n1 [Example 30] | 77 |  |
| Cc1c(N2CCC(C)CC2)nn(CC(=O)Nc2ccc(C#N)cc2)c(=O)c1C [Example 35] | 301 |  |
| CC1CCN(c2nn(CC(=O)Nc3ccc(C#N)cc3)c(=O)c3c2CCCC3)CC1 [Example 36] | 312 |  |
| CC1CC=C(c2ccc(=O)n(CC(=O)Nc3ccc(C#N)cc3)n2)CC1 (centres unmarked) [Example 41] | 324 |  |
| CC1(C)CC=C(c2ccc(=O)n(CC(=O)Nc3ccc(C#N)cc3)n2)CC1 [Example 42] | 216 |  |
| C[C@H]1CC[C@H](c2ccc(=O)n(CC(=O)Nc3ccc(C#N)cc3)n2)CC1 [Example 43] | 174 |  |
| C[C@H]1CC[C@@H](c2ccc(=O)n(CC(=O)Nc3ccc(C#N)cc3)n2)CC1 [Example 44] | 59 |  |
| CC1(C)CCC=C(c2ccc(=O)n(CC(=O)Nc3ccc(C#N)cc3)n2)C1 [Example 45] | 202 |  |
| N#Cc1ccc(NC(=O)Cn2nc(C3CCC(F)(F)CC3)ccc2=O)cc1 [Example 47] | 11 |  |
| CC1C=C(c2ccc(=O)n(CC(=O)Nc3ccc(C#N)cc3)n2)CC(C)O1 (centres unmarked) [Example 49] | 2 |  |
| CC1CCN(c2ccc(=O)n(CC(=O)Nc3ccc(C#N)nc3)n2)CC1 [Example 51] | 196 |  |
| CC1CCN(c2ccc(=O)n(CC(=O)Nc3ccnc(C(F)(F)F)c3)n2)CC1 [Example 52] | 248 |  |
| CC1CCN(c2ccc(=O)n(CC(=O)Nc3ccnc(C#N)c3)n2)CC1 [Example 53] | 161 |  |
| Cc1cc(NC(=O)Cn2nc(N3CCC(C)CC3)ccc2=O)cc(C)n1 [Example 54] | 20 |  |
| CC1CCN(c2ccc(=O)n(CC(=O)Nc3cncnc3)n2)CC1 [Example 56] | 10 |  |
| CC1CCN(c2ccc(=O)n(CC(=O)Nc3ccnc(N(C)C)c3)n2)CC1 [Example 57] | 48 |  |
| CC1CCN(c2ccc(=O)n(CC(=O)Nc3ccc(F)nc3)n2)CC1 [Example 58] | 26 |  |
| CC1CCN(c2ccc(=O)n(CC(=O)Nc3ccc(C(F)(F)F)nc3)n2)CC1 [Example 59] | 180 |  |
| CC1CCN(c2ccc(=O)n(CC(=O)Nc3cncc(C#N)c3)n2)CC1 [Example 60] | 57 |  |
| CC1CCN(c2ccc(=O)n(CC(=O)Nc3cncc(C(F)(F)F)c3)n2)CC1 [Example 61] | 77 |  |

Further lines, results first:

| Nav1.1 current amplification rate (%) [1] [%] | Nav1.1 current amplification rate (%) (Concentration for evaluation 1 μM) | SMILES |
| --- | --- | --- |
| 40 |  | N#Cc1ccc(NC(=O)Cn2nc(N3CCCCC3)ccc2=O)cc1 [Example 3] |
| 3 |  | N#Cc1ccc(NC(=O)Cn2nc(N3CCCC3)ccc2=O)cc1 [Example 4] |
| 6 |  | N#Cc1ccc(NC(=O)Cn2nc(N3CCC(F)(F)CC3)ccc2=O)cc1 [Example 5] |
| 35 |  | CC(C)(C)C1CCN(c2ccc(=O)n(CC(=O)Nc3ccc(C#N)cc3)n2)CC1 [Example 6] |
| 3 |  | N#Cc1ccc(NC(=O)Cn2nc(N3CCCC(O)C3)ccc2=O)cc1 (centres unmarked) [Example 7] |
| 4 |  | N#Cc1ccc(NC(=O)Cn2nc(N3CCCC(C(N)=O)C3)ccc2=O)cc1 (centres unmarked) [Example 8] |
| 11 |  | COC1CCN(c2ccc(=O)n(CC(=O)Nc3ccc(C#N)cc3)n2)CC1 [Example 9] |
| 124 |  | N#Cc1ccc(NC(=O)Cn2nc(N3CCC(C(F)(F)F)CC3)ccc2=O)cc1 [Example 10] |
| 205 |  | N#Cc1ccc(NC(=O)Cn2nc(N3CCCCCC3)ccc2=O)cc1 [Example 11] |
| 241 |  | N#Cc1ccc(NC(=O)Cn2nc(N3CCCCCCC3)ccc2=O)cc1 [Example 12] |
| 76 |  | CC1CCCN(c2ccc(=O)n(CC(=O)Nc3ccc(C#N)cc3)n2)C1 (centres unmarked) [Example 13] |
| 9 |  | CC1CC(C)CN(c2ccc(=O)n(CC(=O)Nc3ccc(C#N)cc3)n2)C1 (centres unmarked) [Example 14] |
| 10 |  | CC1CC(C)CN(c2ccc(=O)n(CC(=O)Nc3ccc(C#N)cc3)n2)C1 (centres unmarked) [Example 15] |
| 59 |  | N#Cc1ccc(NC(=O)Cn2nc(N3CCCC(C(F)(F)F)C3)ccc2=O)cc1 (centres unmarked) [Example 16] |
| 212 |  | N#Cc1ccc(NC(=O)Cn2nc(N3CCC4(CC3)CC4)ccc2=O)cc1 [Example 17] |
| 11 |  | N#Cc1ccc(NC(=O)Cn2nc(N3CC4CC4C3)ccc2=O)cc1 (centres unmarked) [Example 18] |
| 98 |  | CC1CCN(c2ccc(=O)n(CC(=O)Nc3ccc(C#N)cc3)n2)C1 (centres unmarked) [Example 19] |
| 152 |  | N#Cc1ccc(NC(=O)Cn2nc(N3CCCC4(CC4)C3)ccc2=O)cc1 [Example 20] |

| Nav1.1 current amplification rate (%) [1] [%] | Nav1.1 current amplification rate (%) (Concentration for evaluation 1 μM) | SMILES |
| --- | --- | --- |
| 130 |  | CC1(C)CCN(c2ccc(=O)n(CC(=O)Nc3ccc(C#N)cc3)n2)C1 [Example 21] |
| 110 |  | CC1(C)CCCN(c2ccc(=O)n(CC(=O)Nc3ccc(C#N)cc3)n2)C1 [Example 22] |
| 28 |  | CC12CCC(CN(c3ccc(=O)n(CC(=O)Nc4ccc(C#N)cc4)n3)C1)C2(C)C (centres unmarked) [Example 23] |
| 286 |  | N#Cc1ccc(NC(=O)Cn2nc(N3CCC4(CCCC4)C3)ccc2=O)cc1 [Example 24] |
| 163 |  | N#Cc1ccc(NC(=O)Cn2nc(N3CCC4(CC4)C3)ccc2=O)cc1 [Example 25] |
| 364 |  | N#Cc1ccc(NC(=O)Cn2nc(N3CCC4(CCC4)CC3)ccc2=O)cc1 [Example 26] |
| 5 |  | N#Cc1ccc(NC(=O)Cn2nc(N3CCC4(CC3)COC4)ccc2=O)cc1 [Example 27] |
| 158 |  | CCC1(C)CCN(c2ccc(=O)n(CC(=O)Nc3ccc(C#N)cc3)n2)CC1 [Example 28] |
| 20 |  | N#Cc1ccc(NC(=O)Cn2nc(N3CCC4(CCCO4)CC3)ccc2=O)cc1 [Example 29] |
| 220 |  | N#Cc1ccc(NC(=O)Cn2nc(N3CCC4(CCCCC4)C3)ccc2=O)cc1 [Example 31] |
| 60 |  | N#Cc1ccc(NC(=O)Cn2nc(N3CCC4(CC3)CC(F)(F)C4)ccc2=O)cc1 [Example 32] |
| 220 |  | N#Cc1ccc(NC(=O)Cn2nc(N3CCCC4(CCC4)C3)ccc2=O)cc1 [Example 33] |
| 311 |  | N#Cc1ccc(NC(=O)Cn2nc(N3CCC4(CCC4)C3)ccc2=O)cc1 [Example 34] |
| 125 |  | N#Cc1ccc(NC(=O)Cn2nc(C3=CCCCC3)ccc2=O)cc1 [Example 39] |
| 20 |  | N#Cc1ccc(NC(=O)Cn2nc(C3CCCCC3)ccc2=O)cc1 [Example 40] |
| 85 |  | CC1(C)CCCC(c2ccc(=O)n(CC(=O)Nc3ccc(C#N)cc3)n2)C1 (centres unmarked) [Example 46] |
| 111 |  | CC1CCN(c2ccc(=O)n(CC(=O)Nc3cccc(C#N)c3)n2)CC1 [Example 55] |
